Measured values taken from patent publication US20100210682A1, “Repeated Dosing of TRPV1 Antagonists” (ABBOTT LABORATORIES, priority 2009, published 2010).

Tests used:
[1] = tested on: bone cancer pain, C3H/HeJ mice; experiment: Bone cancer pain model in mice (2472 sarcoma); type: in vivo; settings: mouse
Procedure: Male Sprague-Dawley rats (Charles River, Wilmington, Mass.) weighing 200-300 grams were utilized in most experiments. Animals were group housed in AAALAC approved facilities at Abbott Laboratories in a temperature-regulated environment with lights on between 0700 and 2000 h. Food and water were available ad libitum except during testing. All animal handling and experimental protocols were approved by an Institutional Animal Care and Use Committee (IACUC). All experiments were performed during the light cycle. The bone cancer pain experiments were performed on adult male C3H/HeJ mice (Jackson Laboratories, Bar Harbor, Me.), approximately 7-8 weeks old, weighing 25-30 g at the time of tumor cell injection. The mice were housed in accordance with National Institutes of Health Guidelines and kept in a vivarium maintained at 22° C. with a 12 h alternating light-dark cycle. They were given food and water ad libitum except during testing. All procedures were approved by the Institutional Animal Care and Use Committee at the University of Minnesota. All procedures also adhered to the guidelines of the Committee for Research and Ethical Issues of IASP published in PAIN, 16 (1983) 109-110.
An arthrotomy was performed following induction of general anesthesia with sodium pentobarbital (50 mg/kg, intraperitoneal (i.p.)). A needle was inserted into the intramedullary canal to create a pathway for the sarcoma cells. A depression was then made using a pneumatic dental high-speed hand-piece. Mice were injected with Hanks-buffered saline (HBSS) (20 μL, Sigma, St. Louis, Mo.) or HBSS containing the 2472 sarcoma line (ATCC, Rockville, Md., USA). The injection site was sealed with a dental amalgam plug to confine the cells within the intramedullary canal followed by irrigation with sterile water. […] Clips were removed at day 5 so as not to interfere with behavioral testing.
A variety of behavioral measurements was used to assess the extent of bone cancer pain as described previously [Schwei M J, Honore P, Rogers S D, Salak-Johnson J L, Finke M P, Ramnaraine M L, et al. Neurochemical and cellular reorganization of the spinal cord in a murine model of bone cancer pain. J Neurosci 1999; 19:10886-97]. All mice were tested and values obtained for behavioral responses before compound or vehicle administration, and then retested 1 hour following oral dosing. Percent effects were calculated as follows: (1−((Compound Value−Sham Value)/(Vehicle Value−Sham Value)))×100. The number of spontaneous guarding behaviors, representative of nociceptive behavior, was recorded during a 2 min observation period. Guarding was defined as the amount of time an animal held the hind paw aloft while not ambulatory. Mechanical allodynia at the knee joint was evaluated by normally non-noxious palpation of the distal femur every second for 2 min. Following the 2 min palpation, the mice were placed in the observation box and their palpation-induced guarding behavior was measured for an additional 2 min. Normal limb use during spontaneous ambulation in an open field was scored on a scale of 5-0: (5) normal use, (4) some limping, but not pronounced, (3) pronounced limp, (2) limp and guarding behavior, (1) partial non-use of limb, and (0) complete lack of limb use.
Compound A was dissolved in 100% polyethylene glycol (PEG 400) for oral administration in a 2 mL/kg injection volume. Compounds B, C, and D were dissolved in 10% ethanol, 20% Tween 80 and 70% polyethylene glycol-400 for oral administration in a 2 mL/kg injection volume. All compounds were dosed orally (p.o.) 60 minutes before behavioral testing.

[2] = molecular target: TRPV1 receptor (Homo sapiens, UniProt Q8NER1); experiment: Block of TRPV1 receptor activation by capsaicin in vitro; type: biochemical
[3] = tested on: capsaicin-induced flinching behaviors; experiment: Capsaicin-induced acute pain (flinching) in rats; type: in vivo; settings: rat, acute dosing, 2.5 μg capsaicin into hind paw
Procedure: Rats were placed in individual observation cages. Following an acclimation period of 30 min, the test compound was administered. Two hours later, 2.5 μg of capsaicin in a 10 μL solution of 10% ethanol/90% hydroxypropyl-b-cyclodextrin was injected subcutaneously into the dorsal aspect of the right hind paw. The observation cage was then suspended above mirrors in order to facilitate observation of the rat. […] The number of flinching behaviors of the injured paw was recorded during the 5 minutes observation period. Compound A was dissolved in 100% polyethylene glycol (PEG 400) for oral administration in a 2 mL/kg injection volume. Compounds B, C, and D were dissolved in 10% ethanol, 20% Tween 80 and 70% polyethylene glycol-400 for oral administration in a 2 mL/kg injection volume. All compounds were dosed orally (p.o.) 60 minutes before behavioral testing.

[4] = tested on: MIA-induced osteoarthritic rats; experiment: Osteoarthritic pain model in rats (MIA), weight bearing difference; type: in vivo; settings: po, 96 h; rat, p.o., acute dosing, 4 days following MIA injection; read-out: ED50, reversal of difference in weight bearing
Procedure: Unilateral knee joint osteoarthritis was induced in the rats by a single intraarticular (i.a.) injection of sodium monoiodoacetate (MIA) (Sigma, St. Louis, Mo.) (3 mg in 0.05 mL sterile isotonic saline) into the joint cavity using a 26 G needle under light (2-4%) halothane (Halocarbon Laboratories, River Edge, N.J.) anesthesia [Bove S E, Calcaterra S L, Brooker R M, Huber C M, Guzman R E, Juneau P L, et al. Weight bearing as a measure of disease progression and efficacy of anti-inflammatory compounds in a model of monosodium iodoacetate-induced osteoarthritis. Osteoarthritis Cartilage 2003; 11:821-30]. […]
MIA-induced nociception can be assessed by measuring differences in weight bearing (WBD) or decrease in grip force (GF) several days to weeks following MIA injection [Bove S E, Calcaterra S L, Brooker R M, Huber C M, Guzman R E, Juneau P L, et al. Weight bearing as a measure of disease progression and efficacy of anti-inflammatory compounds in a model of monosodium iodoacetate-induced osteoarthritis. […]
Differences in weight bearing on the injured vs uninjured hind limb were assessed by placing the animals in an Incapacitance Tester (Linton, Stoelting, Wood Dale, Ill.). […] The animals were allowed to acclimate for approximately 30 s before weight-bearing readings (measured in grams) were recorded. […]

[5] = 30 μmol/kg p.o., acute dosing, fifteen days following tumor cells inoculation

Chain of TRPV1 receptor (Q8NER1 whole entry): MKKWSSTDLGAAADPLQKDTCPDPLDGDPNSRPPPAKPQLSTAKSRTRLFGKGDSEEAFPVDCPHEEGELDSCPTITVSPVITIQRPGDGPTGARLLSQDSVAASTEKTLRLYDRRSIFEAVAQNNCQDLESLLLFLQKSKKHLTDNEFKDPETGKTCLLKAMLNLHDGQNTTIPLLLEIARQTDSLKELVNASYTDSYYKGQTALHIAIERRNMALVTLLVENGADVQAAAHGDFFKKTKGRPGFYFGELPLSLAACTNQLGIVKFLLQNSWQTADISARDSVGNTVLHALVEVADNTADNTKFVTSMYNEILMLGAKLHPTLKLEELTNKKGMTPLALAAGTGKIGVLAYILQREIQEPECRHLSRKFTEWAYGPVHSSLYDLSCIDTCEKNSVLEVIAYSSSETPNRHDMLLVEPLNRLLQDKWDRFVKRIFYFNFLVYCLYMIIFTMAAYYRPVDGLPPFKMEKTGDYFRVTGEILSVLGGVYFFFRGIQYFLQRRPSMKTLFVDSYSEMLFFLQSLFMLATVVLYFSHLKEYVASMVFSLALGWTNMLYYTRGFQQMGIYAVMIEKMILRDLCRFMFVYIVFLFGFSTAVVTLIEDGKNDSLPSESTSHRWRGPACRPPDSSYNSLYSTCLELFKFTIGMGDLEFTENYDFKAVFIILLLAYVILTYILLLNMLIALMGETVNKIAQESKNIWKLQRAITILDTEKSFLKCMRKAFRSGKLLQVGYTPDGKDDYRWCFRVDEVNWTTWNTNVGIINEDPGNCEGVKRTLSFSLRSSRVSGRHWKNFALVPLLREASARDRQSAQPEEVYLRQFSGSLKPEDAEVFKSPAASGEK

## CC(C)(C)c1ccc2c(c1)CC[C@H]2NC(=O)Nc1cccc2[nH]ncc12 [Compound A, N-[(1R)-5-tert-butyl-2,3-dihydro-1H-inden-1-yl]-N′-1H-indazol-4-ylurea]
[1]; 10 μmol/kg p.o. twice-daily for 9 days
  reversal of spontaneous guarding: 45±3%
[1]; 30 μmol/kg p.o., acute dosing
  reversal of evoked pain induced by palpation of the cancerous limb (% effects): 65±4%
[1]; [5]
  reversal of spontaneous guarding: 70±1%
  reversal of the pain-induced decrease in ambulation: 85±15%
[1]; repeated dosing
  evoked pain induced by palpation of the cancerous limb, repeated vs single dosing: Improved analgesic efficacy
[1]; repeated dosing (10 μmol/kg p.o. twice-daily for 9 days)
  effect on spontaneous ambulation: 43±0%
[1]; single dose 10 μmol/kg p.o.
  analgesic effect on spontaneous ambulation: 19±0%
  analgesic effect on spontaneous guarding: 18±6%
[2]
  ability to block TRPV1 receptor activation by capsaicin in vitro: potent
[3]
  capsaicin-induced flinching behaviors: dose-dependently prevented
[4]
  ED50: 30 µmol/kg
